# Results: paper PMC5806882, “Structural and biochemical characterization of the biuret hydrolase (BiuH) from the cyanuric acid catabolism pathway of Rhizobium leguminasorum bv. viciae 3841” (PLoS ONE, 2018)
# Molecular target: biuret hydrolase (BiuH) (Rhizobium johnstonii, UniProt Q1M7F4, C175S)
# Experiment: X-ray crystal structure, […] Å
# Format: binding
# Sequence of biuret hydrolase (BiuH) (Q1M7F4 whole entry C175S): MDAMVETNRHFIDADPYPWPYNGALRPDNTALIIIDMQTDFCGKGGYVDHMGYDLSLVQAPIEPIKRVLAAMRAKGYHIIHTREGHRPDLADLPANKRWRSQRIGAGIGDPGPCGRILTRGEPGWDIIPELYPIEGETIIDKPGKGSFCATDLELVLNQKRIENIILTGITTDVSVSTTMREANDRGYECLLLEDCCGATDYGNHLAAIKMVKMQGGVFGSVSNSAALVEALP
structure (smiles),measurement,value
NC(=O)NC(N)=O [biuret],"X-ray crystal structure, 2.22 Å",A structure of the inactive Cys175Ser variant with biuret in the active site was obtained (PDB ID: 6AZQ).
